Target: cDNA-expressed human hepatic CYP3A4 (Homo sapiens (Human), UniProt P08684)
Test: Measurement of CYP (IC50 of P450 CYP3A4), BFC substrate
Type: in vitro ADME
Settings: 20 minutes
Experimental: The compounds of the present invention had lower P450 CYP3A4 inhibitory activity (higher IC50). Lower CYP3A4 inhibitory activity means that the compounds of the present invention cause fewer side-effects from the pharmacological point of view.
This assay was performed in a 200 l volume in 96-well microtiter plates using cDNA-expressed human hepatic CYP3A4 (supersome, BD Gentest™ #456202). As a substrate for CYP3A4, 7-benzyloxy-4-trifluoromethyl-coumarin (BFC) was used. The compounds of Examples 1 to 5 and the substrate BFC were dissolved in 100% acetonitrile. The final volume of acetonitrile of the incubation mixture was less than 1% (volume/volume). A potassium phosphate buffer (pH 7.4, final concentration 0.1M), MgCl2 (final concentration 8.3 mM), EDTA (final concentration 1.67 mM), an inventive compound stock solution, CYP3A4 supersome, and NADPH (final concentration 0.25 mM) were added to each well. The reaction was initiated by adding the substrate (BFC, final concentration 30 µM) at 37. The incubation was performed for 20 minutes and then the reaction was terminated by the addition of 75 μl of acetonitrile: 0.5 M tris-base=4:1 (volume/volume).
Then, a fluorescent signal was measured using a fluorometer. A BFC metabolite, 7-hydroxy-4-trifluoromethyl-coumarin, was measured using an excitation wavelength of 409 nm and an emission wavelength of 530 nm.

Chain of cDNA-expressed human hepatic CYP3A4 (P08684 whole entry): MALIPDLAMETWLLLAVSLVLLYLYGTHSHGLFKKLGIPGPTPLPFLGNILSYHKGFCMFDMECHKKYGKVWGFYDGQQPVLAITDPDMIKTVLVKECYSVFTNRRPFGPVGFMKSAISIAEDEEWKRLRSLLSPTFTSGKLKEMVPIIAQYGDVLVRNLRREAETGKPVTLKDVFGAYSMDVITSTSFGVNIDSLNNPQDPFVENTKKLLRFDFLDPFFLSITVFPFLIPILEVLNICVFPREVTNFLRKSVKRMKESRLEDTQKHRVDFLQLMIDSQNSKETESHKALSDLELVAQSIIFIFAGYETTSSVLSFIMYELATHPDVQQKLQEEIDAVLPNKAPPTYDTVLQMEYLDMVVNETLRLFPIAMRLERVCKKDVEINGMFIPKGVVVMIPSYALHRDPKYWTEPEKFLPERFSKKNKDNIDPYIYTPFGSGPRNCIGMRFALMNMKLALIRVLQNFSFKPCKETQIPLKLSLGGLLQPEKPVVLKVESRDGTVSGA

Structure (SMILES) | IC50 [µM]
C=CCN1CC(=O)N2[C@@H](Cc3ccc(O)cc3)C(=O)N(Cc3cccc4c(C(=O)N5CCN(CCCCO)CC5)cn(C)c34)C[C@@H]2N1C(=O)NCc1ccccc1 [Compound E-12] | 9.3
C=CCN1CC(=O)N2[C@@H](Cc3ccc(O)cc3)C(=O)N(Cc3cccc4c(C(=O)N5CCN(CC6CCCC6)CC5)cn(C)c34)C[C@@H]2N1C(=O)NCc1ccccc1 [Compound E-21] | > 25
C=CCN1CC(=O)N2[C@@H](Cc3ccc(O)cc3)C(=O)N(Cc3cccc4c(C(=O)N(C)CCN5CCN(C)CC5)cn(C)c34)C[C@@H]2N1C(=O)NCc1ccccc1 [Compound F-28] | 7.8
C=CCN1CC(=O)N2[C@@H](Cc3ccc(O)cc3)C(=O)N(Cc3cccc4c(-c5ccc(NC(=O)c6ccc(N(CC)CC)cc6)cc5)cn(C)c34)C[C@@H]2N1C(=O)NCc1ccccc1 [Compound D-57] | > 25
C=CCN1CC(=O)N2[C@@H](Cc3ccc(O)cc3)C(=O)N(Cc3cccc4c(C(=O)NCCN(C)C)cn(C)c34)C[C@@H]2N1C(=O)NCc1ccccc1 [Compound F-13] | 7.87
C=CCN1CC(=O)N2[C@@H](Cc3ccc(O)cc3)C(=O)N(Cc3cccc4c(C(=O)NCCN5CCOCC5)cn(C)c34)C[C@@H]2N1C(=O)NCc1ccccc1 [Compound F-25] | 8.5
C=CCN1CC(=O)N2[C@@H](Cc3ccc(O)cc3)C(=O)N(Cc3cccc4c(C(=O)N5CCN6CCN(C=O)CC6C5)cn(C)c34)C[C@@H]2N1C(=O)NCc1ccccc1 (stereo partly shown) [Compound E-48] | 12.1
C=CCN1CC(=O)N2[C@@H](Cc3ccc(O)cc3)C(=O)N(Cc3cccc4c(-c5ccc(C(=O)Nc6cccc(OCc7ccccc7)c6)cc5)cn(C)c34)C[C@@H]2N1C(=O)NCc1ccccc1 [Compound D-20] | 17.2
C=CCN1CC(=O)N2[C@@H](Cc3ccc(O)cc3)C(=O)N(Cc3cccc4c(-c5ccc(C(=O)Nc6ccc(OCCCC)cc6)cc5)cn(C)c34)C[C@@H]2N1C(=O)NCc1ccccc1 [Compound D-23] | > 25
C=CCN1CC(=O)N2[C@@H](Cc3ccc(O)cc3)C(=O)N(Cc3cccc4c(C(=O)NN5CCOCC5)cn(C)c34)C[C@@H]2N1C(=O)NCc1ccccc1 [Compound F-58] | 22.3
C=CCN1CC(=O)N2[C@@H](Cc3ccc(O)cc3)C(=O)N(Cc3cccc4c(-c5cccc(C(=O)Nc6ccc(N7CCN(c8ccc(OC)cc8)CC7)cc6)c5)cn(C)c34)C[C@@H]2N1C(=O)NCc1ccccc1 [Compound D-25] | > 25
C=CCN1CC(=O)N2[C@@H](Cc3ccc(O)cc3)C(=O)N(Cc3cccc4c(C(=O)NN5CCCC5)cn(C)c34)C[C@@H]2N1C(=O)NCc1ccccc1 [Compound F-56] | 17.4
C=CCN1CC(=O)N2[C@@H](Cc3ccc(O)cc3)C(=O)N(Cc3cccc4c(C(=O)NCCCO)cn(C)c34)C[C@@H]2N1C(=O)NCc1ccccc1 [Compound F-4] | 16.2
C=CCN1CC(=O)N2[C@@H](Cc3ccc(O)cc3)C(=O)N(Cc3cccc4c(C(=O)N5CCN(CCO)CC5)cn(C)c34)C[C@@H]2N1C(=O)NCc1ccccc1 [Compound E-9] | 6.82
C=CCN1CC(=O)N2[C@@H](Cc3ccc(O)cc3)C(=O)N(Cc3cccc4c(C(=O)N5CCC(NC(=O)CCO)CC5)cn(C)c34)C[C@@H]2N1C(=O)NCc1ccccc1 [Compound E-57] | 7.65
C=CCN1CC(=O)N2[C@@H](Cc3ccc(O)cc3)C(=O)N(Cc3cccc4c(C(=O)NCCN5CCN(C)CC5)cn(C)c34)C[C@@H]2N1C(=O)NCc1ccccc1 [Compound F-27] | 11.5
C=CCN1CC(=O)N2[C@@H](Cc3ccc(O)cc3)C(=O)N(Cc3cccc4c(C(=O)N5CCN(CCCO)CC5)cn(C)c34)C[C@@H]2N1C(=O)NCc1ccccc1 [Compound E-11] | 11.3
C=CCN1CC(=O)N2[C@@H](Cc3ccc(O)cc3)C(=O)N(Cc3cccc4c(C(=O)N5CCN(S(C)(=O)=O)CC5)cn(C)c34)C[C@@H]2N1C(=O)NCc1ccccc1 [Compound E-15] | 11.2
C=CCN1CC(=O)N2[C@@H](Cc3ccc(O)cc3)C(=O)N(Cc3cccc4c(C(=O)N[C@H](C)C(=O)OC)cn(C)c34)C[C@@H]2N1C(=O)NCc1ccccc1 [Compound F-21] | 10.9
C=CCN1CC(=O)N2[C@@H](Cc3ccc(O)cc3)C(=O)N(Cc3cccc4c(-c5ccc(NC(=O)CCCCCCC)cc5)cn(C)c34)C[C@@H]2N1C(=O)NCc1ccccc1 [Compound D-52] | 21.7

The remaining lines, values ahead:

IC50 [µM] | Structure (SMILES)
5.04 | C=CCN1CC(=O)N2[C@@H](Cc3ccc(O)cc3)C(=O)N(Cc3cccc4c(C(=O)N(C)CC(=O)N5CCN(C)CC5)cn(C)c34)C[C@@H]2N1C(=O)NCc1ccccc1 [Compound F-32]
4.49 | C=CCN1CC(=O)N2[C@@H](Cc3ccc(O)cc3)C(=O)N(Cc3cccc4c(C(=O)N5CCC6CN(C)CC65)cn(C)c34)C[C@@H]2N1C(=O)NCc1ccccc1 (stereo partly shown) [Compound E-69]
4.78 | C=CCN1CC(=O)N2[C@@H](Cc3ccc(O)cc3)C(=O)N(Cc3cccc4c(C(=O)NN5CCCCC5)cn(C)c34)C[C@@H]2N1C(=O)NCc1ccccc1 [Compound F-57]
3.16 | C=CCN1CC(=O)N2[C@@H](Cc3ccc(O)cc3)C(=O)N(Cc3cccc4c(C(=O)N(C)C)cn(C)c34)C[C@@H]2N1C(=O)NCc1ccccc1 [Compound F-1]
4.05 | C=CCN1CC(=O)N2C(Cc3ccc(O)cc3)C(=O)N(Cc3cccc4c(C(=O)Nc5ccc(NCCN(C(C)C)C(C)C)nc5)cn(C)c34)CC2N1C(=O)NCc1ccccc1 (stereo not shown) [Compound G-25]
5.53 | C=CCN1CC(=O)N2[C@@H](Cc3ccc(O)cc3)C(=O)N(Cc3cccc4c(C(=O)N5CCN(CCN6CCCCC6)CC5)cn(C)c34)C[C@@H]2N1C(=O)NCc1ccccc1 [Compound E-24]
2.33 | C=CCN1CC(=O)N2[C@@H](Cc3ccc(O)cc3)C(=O)N(Cc3cccc4c(C(=O)N(C)NC)cn(C)c34)C[C@@H]2N1C(=O)NCc1ccccc1 [Compound F-53]
5.12 | C=CCN1CC(=O)N2[C@@H](Cc3ccc(O)cc3)C(=O)N(Cc3cccc4c(C(=O)NC5CCN(C(C)=O)CC5)cn(C)c34)C[C@@H]2N1C(=O)NCc1ccccc1 [Compound F-64]
2.19 | C=CCN1CC(=O)N2[C@@H](Cc3ccc(O)cc3)C(=O)N(Cc3cccc4c(-c5ccc(NC(=O)NCC(C)(C)C)nc5)cn(C)c34)C[C@@H]2N1C(=O)NCc1ccccc1 [Compound D-96]
5.04 | C=CCN1CC(=O)N2[C@@H](Cc3ccc(O)cc3)C(=O)N(Cc3cccc4c(C(=O)N5CCN6CCN(CC)CC6C5)cn(C)c34)C[C@@H]2N1C(=O)NCc1ccccc1 (stereo partly shown) [Compound E-50]
2.13 | C=CCN1CC(=O)N2[C@@H](Cc3ccc(O)cc3)C(=O)N(Cc3cccc4c(-c5cccc(C(=O)Nc6ccccc6)c5)cn(C)c34)C[C@@H]2N1C(=O)NCc1ccccc1 [Compound D-14]
6.8 | C=CCN1CC(=O)N2[C@@H](Cc3ccc(O)cc3)C(=O)N(Cc3cccc4c(C(=O)NNc5ccccc5)cn(C)c34)C[C@@H]2N1C(=O)NCc1ccccc1 [Compound F-60]
5.8 | C=CCN1CC(=O)N2C(CN(Cc3cccc4c(C(=O)Nc5ccc(NCCN6CCC(O)CC6)nc5)cn(C)c34)C(=O)[C@@H]2Cc2ccc(O)cc2)N1C(=O)NCc1ccccc1 (stereo partly shown) [Compound G-29]
2.82 | C=CCN1CC(=O)N2[C@@H](Cc3ccc(O)cc3)C(=O)N(Cc3cccc4c(C(=O)N5CCN(S(=O)(=O)CC)CC5)cn(C)c34)C[C@@H]2N1C(=O)NCc1ccccc1 [Compound E-16]
5.99 | C=CCN1CC(=O)N2[C@@H](Cc3ccc(O)cc3)C(=O)N(Cc3cccc4c(C(=O)N5CC(N6CCOCC6)C5)cn(C)c34)C[C@@H]2N1C(=O)NCc1ccccc1 [Compound E-72]
1.1 | C=CCN1CC(=O)N2[C@@H](Cc3ccc(O)cc3)C(=O)N(Cc3cccc4c(C(=O)NCCCN5CCOCC5)cn(C)c34)C[C@@H]2N1C(=O)NCc1ccccc1 [Compound F-29]
5.35 | C=CCN1CC(=O)N2C(Cc3ccc(O)cc3)C(=O)N(Cc3cccc4c(C(=O)Nc5ccc(N(CCN(CC)CC)CCN(CC)CC)nc5)cn(C)c34)CC2N1C(=O)NCc1ccccc1 (stereo not shown) [Compound G-26]
3.64 | C=CCN1CC(=O)N2[C@@H](Cc3ccc(O)cc3)C(=O)N(Cc3cccc4c(C(=O)NCCN(CC)CC)cn(C)c34)C[C@@H]2N1C(=O)NCc1ccccc1 [Compound F-14]
2.54 | C=CCN1CC(=O)N2[C@@H](Cc3ccc(O)cc3)C(=O)N(Cc3cccc4c(C(=O)NCCCN5CCN(C)CC5)cn(C)c34)C[C@@H]2N1C(=O)NCc1ccccc1 [Compound F-30]
3.46 | C=CCN1CC(=O)N2[C@@H](Cc3ccc(O)cc3)C(=O)N(Cc3cccc4c(C(=O)NCCCC(=O)OC)cn(C)c34)C[C@@H]2N1C(=O)NCc1ccccc1 [Compound F-23]
2.55 | C=CCN1CC(=O)N2C(CN(Cc3cccc4c(C(=O)Nc5ccc(NCC(O)CO)nc5)cn(C)c34)C(=O)[C@@H]2Cc2ccc(O)cc2)N1C(=O)NCc1ccccc1 (stereo partly shown) [Compound G-21]
2.89 | C=CCN1CC(=O)N2[C@@H](Cc3ccc(O)cc3)C(=O)N(Cc3cccc4c(C(=O)N(CCO)CCNCCO)cn(C)c34)C[C@@H]2N1C(=O)NCc1ccccc1 [Compound F-20]
4.97 | C=CCN1CC(=O)N2[C@@H](Cc3ccc(O)cc3)C(=O)N(Cc3cccc4c(C(=O)N5CCC(C(=O)N(C)CCN(C)C)CC5)cn(C)c34)C[C@@H]2N1C(=O)NCc1ccccc1 [Compound E-54]
